The values below come from article PMC3522796 (Cancer letters, 2012).

One data set concerns HeLa cells. The settings on record: cited from earlier work.
The conditions of data set [1]: rabbit model; cited from earlier work.
The next data set concerns human MCF-7 cells. The settings on record: 72 h incubation; cited from earlier work.
The target in a further data set is tubulin (Sus scrofa, UniProt P02554). As to the kind of experiment: Tubulin polymerization assay. In kind it is biochemical.
Data set [2] concerns 4T1 mouse mammary carcinoma cells. As to the kind of experiment: In-vitro cytotoxicity, MTT assay. In kind it is cell-based.
A further data set concerns microtubule. The settings on record: cited from earlier work; for Microtubule assembly: 10 µM.
In another data set the test system is P-glycoprotein (P-gp). The settings on record: cited from earlier work.
Data set [3] deals with M109 subcutaneous lung tumor. The settings on record: cited from earlier work; for Antitumor efficacy: at MTD; for Tumor AUC of PX fold greater than Taxol: i.v.
For another data set, the system named is human tumor cell lines. The conditions noted are these: variety of human tumor cell lines; cited from earlier work.
Data set [4] relates to metastatic malignant melanoma. The conditions noted are these: Phase III, every 3-week treatment schedule; cited from earlier work.
A further data set relates to mice. The settings on record: cited from earlier work.

“Also recorded” adds a separate entry of the source. Where two headings read alike, the source gives them in different places.

Sequence of tubulin (P02554 whole entry): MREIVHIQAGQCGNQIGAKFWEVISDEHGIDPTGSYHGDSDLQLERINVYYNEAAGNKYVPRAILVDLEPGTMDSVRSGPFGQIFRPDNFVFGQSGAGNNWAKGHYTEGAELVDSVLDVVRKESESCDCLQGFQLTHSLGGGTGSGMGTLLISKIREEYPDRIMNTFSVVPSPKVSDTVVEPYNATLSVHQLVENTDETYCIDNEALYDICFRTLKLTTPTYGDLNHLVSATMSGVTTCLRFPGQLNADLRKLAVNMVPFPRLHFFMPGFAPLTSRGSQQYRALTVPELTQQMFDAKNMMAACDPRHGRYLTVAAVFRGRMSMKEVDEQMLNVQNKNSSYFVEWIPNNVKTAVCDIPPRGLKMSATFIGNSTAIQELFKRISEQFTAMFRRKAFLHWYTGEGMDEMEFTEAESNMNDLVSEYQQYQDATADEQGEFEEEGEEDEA
Sequence of tubulin (P02550 whole entry partner): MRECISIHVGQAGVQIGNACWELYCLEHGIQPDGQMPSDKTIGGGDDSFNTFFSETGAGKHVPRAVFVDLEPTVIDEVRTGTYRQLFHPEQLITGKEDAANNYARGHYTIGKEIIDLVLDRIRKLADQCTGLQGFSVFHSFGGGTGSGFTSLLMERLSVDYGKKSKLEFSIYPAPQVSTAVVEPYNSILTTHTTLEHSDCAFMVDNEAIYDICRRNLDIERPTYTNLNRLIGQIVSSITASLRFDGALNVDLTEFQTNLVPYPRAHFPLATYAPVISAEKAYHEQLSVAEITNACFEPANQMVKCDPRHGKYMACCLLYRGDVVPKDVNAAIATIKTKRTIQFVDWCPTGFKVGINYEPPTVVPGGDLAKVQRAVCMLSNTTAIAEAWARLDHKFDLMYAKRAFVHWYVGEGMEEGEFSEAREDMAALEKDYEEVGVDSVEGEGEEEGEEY

Turning to `CCCCCCCCC=CCCCCCCCC(=O)OC(C(=O)OC1CC2(O)C(OC(=O)c3ccccc3)C3C4(OC(C)=O)COC4CC(O)C3(C)C(=O)C(OC(C)=O)C(=C1C)C2(C)C)C(NC(=O)c1ccccc1)c1ccccc1` (stereo not drawn) [2’-oleate-PX], the IC50 – broadly, the point on the concentration scale where inhibition reaches its midpoint – in the data set on HeLa cells (24 h incubation, in lipid emulsions) was 5500 nM; in the data set on HeLa cells (48 h incubation) it was 500 nM; in the data set on HeLa cells (72 h incubation, in lipid emulsions) it was 150 nM; in the data set on HeLa cells (96 h incubation, in lipid emulsions) it was 100 nM. Further, the “Pharmacokinetics compared to PX formulated in Cremophor EL/Ethanol” value in data set [1] is “significantly greater AUC, higher Cmax, and lower systemic clearance”.
For `CCCCCCCCCCCCCCC(Br)C(=O)OC(C(=O)OC1CC2(O)C(OC(=O)c3ccccc3)C3C4(OC(C)=O)COC4CC(O)C3(C)C(=O)C(OC(C)=O)C(=C1C)C2(C)C)C(NC(=O)c1ccccc1)c1ccccc1` (stereo not drawn) [2’-α-bromohexadecanoyl-PX], in the data set with human MCF-7 cells, the “Fold less potent compared to PX” value is listed as 70 fold.
As for “2’-behenoyl-paclitaxel [Formulation C22-PX]”, the “Effect on tubulin polymerization” value on tubulin (5 µM, compared to control) is recorded as “no effect on tubulin polymerization”; on tubulin (10 µM, compared to control), “no effect on tubulin polymerization; also recorded: no microtubule activity”; at tubulin (20 µM, compared to control (p < 0.01)) it was “some tubulin polymerization activity”. For the same compound, the “IC50 fold higher than PX” value in data set [2] (4T1 cells) was “about 8 fold”. The same compound gave an IC50 in data set [2] (4T1 cells, MTT, 48 h) of 282 ± 42 nM.
As for `CCCCCC=CCC=CCCCCCCCC(=O)OC(C(=O)OC1CC2(O)C(OC(=O)c3ccccc3)C3C4(OC(C)=O)COC4CC(O)C3(C)C(=O)C(OC(C)=O)C(=C1C)C2(C)C)C(NC(=O)c1ccccc1)c1ccccc1` (stereo not drawn) [2’-linoleic acid-PX], the Microtubule assembly entry in the data set on microtubule is on record as “not able to assemble microtubule”.
Turning to `CC(=O)O[C@H]1C(=O)[C@@]2(C)[C@H]([C@H](OC(=O)c3ccccc3)[C@]3(O)C[C@H](OC(=O)[C@H](O)[C@@H](NC(=O)c4ccccc4)c4ccccc4)C(C)=C1C3(C)C)[C@]1(OC(C)=O)CO[C@@H]1C[C@@H]2O` [PX, Paclitaxel], the “Vmax of tubulin polymerization” value at tubulin (10 µM, 37°C, 3 mg/ml tubulin, standard control 25.3 ± 3.2) was determined as 45.0 ± 3.6 mOD/min. The “Effect on tubulin polymerization” value at tubulin (10 µM, compared to control) was “could stabilize microtubule proteins”. Also, in the data set with P-glycoprotein (P-gp), the P-gp substrate entry was “substrate of P-glycoprotein”. In [2] (Mus musculus, 4T1, 48 h), this compound showed an IC50 of 38 ± 1 nM. In addition, the Antitumor efficacy result in data set [3] was “did not result in even partial tumor regression”. The Cytotoxic concentration range result with human tumor cell lines is given as “nM range”.
Take `CC/C=C\C/C=C\C/C=C\C/C=C\C/C=C\C/C=C/CCC(=O)O[C@@H](C(=O)O[C@H]1C[C@@]2(O)[C@@H](OC(=O)c3ccccc3)C3[C@](C)(C(=O)[C@H](OC(C)=O)C(=C1C)C2(C)C)[C@@H](O)C[C@H]1OC[C@@]31OC(C)=O)[C@@H](NC(=O)c1ccccc1)c1ccccc1` (stereo partly drawn) [DHA-PX, docosahexaenoic acid-PX]: the Overall survival entry in [4] is on record as “not superior to dacarbazine”. Also, the “MTD fold higher compared to Taxol” value in the data set with mice is 4.4 fold. For the same compound, the P-gp substrate result in the data set on P-glycoprotein (P-gp) is listed as “remains a P-gp substrate”. In the data set on microtubule, the Microtubule assembly result is “not able to assemble microtubule” and the Microtubule assembly activity entry is “does not have microtubule assembly activity”. Also, the Antitumor efficacy result in data set [3] is recorded as “completely eliminated measurable tumors”. In addition, in [3] (equimolar dose), the “Tumor AUC of PX fold greater than Taxol” value is on record as 1.71 fold. The “Tumor AUC of PX fold greater than Taxol” value in data set [3] (equitoxic dose) is reported as 5.79 fold. Besides, the Cytotoxic concentration range result with human tumor cell lines is reported as “µM concentration range”.
